Paper PMC2685802, “Daptomycin in experimental murine pneumococcal meningitis” (BMC Infectious Diseases, 2009)
Read-outs that look alike come from different tables or passages of the source.

Key:
S. pneumoniae Xen10 = assay: Time kill assay; format: cell-based, Streptococcus pneumoniae; conditions: daptomycin 1 μg/ml or vancomycin 2 μg/ml alone and with dexamethasone 100 μg/ml
Text: Figure 1 Time kill assay. […] DP, daptomycin; VN, vancomycin; DX, dexamethasone.

[1] = Serum antibiotic concentration in mice after intraperitoneal dose (microbiological assay); format: in vivo; conditions: single dose, detection limit 0.5 μg/ml
Protocol: The 30 minute serum concentration of vancomycin or daptomycin in 25–30 gram immunocompetent hairless mice (Charles River Laboratories, Wilmington, MA) was determined following intraperitoneal injection of 40, 50 and 60 mg/kg vancomycin or 20, 30, 40 and 50 mg/kg daptomycin, respectively. Pharmacokinetic profiles were determined by injecting 50 mg/kg vancomycin or 25 mg/kg daptomycin intraperitoneally and obtaining serum samples 30, 60, 120, 180 and 240 minutes post injection. Drug activity was measured using a microbiological assay technique. Standard curves for serum drug level determination were performed by making drug dilutions in pooled mouse serum (Innovative Research, Incorporated, Southfield, MI). The reporter bacteria for the vancomycin and daptomycin bioassays were Bacillus subtilis and Micrococcus luteus, respectively. Zones of growth inhibition were measured to the nearest millimeter. The detection limit for both drugs was 0.5 μg/ml.

[2] = system: Streptococcus pneumoniae A 66.1 serotype 3 (Xen 10); format: in vivo, mice
Protocol: This study was approved by the Institutional Animal Care and Use Committee of the Mayo Clinic, Rochester, Minnesota. Ninety-six 25–30 gram immunocompetent hairless mice were divided into three treatment groups. Sixteen hours prior to treatment, mice were anesthetized using ketamine and xylazine (45 mg/kg and 5 mg/kg I.M., respectively) and 3 × 10^4 cfu of bacteria in a 20 μl volume were inoculated into the cisterna magna. The time of treatment was selected as the latest time point at which antimicrobial treatment could realistically lead to recovery. […] At 20 hours post infection an additional dose of vancomycin 50 mg/kg was given to the vancomycin-treated animals. Mice not receiving vancomycin at 20 hours were injected with an equal volume of saline. At 16, 20, and 24 hours post infection, 8, 40 and 48 animals, respectively were re anesthetized and cerebrospinal fluid (CSF) was collected by way of puncture from the cisterna magna (using a 28 G 1/2 needle 0.3 × 13 mm from BD Microlance). CSF white-blood cell count was determined and bacterial burden was quantified in CSF by plating serial 10-fold dilutions in sterile isotonic saline onto blood agar plates. Results were expressed as log10 cfu/ml; the detection limit was 20 cfu/ml of CSF. Following collection of CSF, animals were euthanized with a lethal dose of pentobarbital, their brains collected and placed in 10% neutral buffered formalin.
Bacterial concentrations between treatment groups at each time point were compared using the student t-test. Correlation analysis between log10 bacterial CSF titers and log10 photons/second was calculated using SPSS statistical software. For inflammation, neuronal necrosis, and apoptosis scores, statistical analysis included a nonparametric Kruskal-Wallis test followed by a Dunn's test comparing all treatment groups using a confidence level of 95%.

[3] = human, 6 mg/kg q.d. intravenously (highest FDA-approved dose); no reference given; cited from earlier work
[4] = system: penicillin-resistant pneumococcal strains; conditions: cited from earlier work
Text: Four studies of daptomycin treatment of experimental meningitis have been reported. […] Similarly, Gerber et al. reported bactericidal activity in a rabbit model of Staphyloco ...

[5] = vancomycin 50 mg/kg intraperitoneally, bioassay with Bacillus subtilis

SMILES	in vitro bactericidal activity, effect of dexamethasone (S. pneumoniae Xen10)	level at 4 h ([1]; hairless (immunocompetent), mouse, serum, ip, daptomycin 25 mg/kg intraperitoneally, bioassay with Micrococcus luteus)	level at 0.5 h ([1]; hairless (immunocompetent), mouse, serum, ip, daptomycin 25 mg/kg intraperitoneally, bioassay with Micrococcus luteus, read-out: serum concentration at 30 minutes)	CSF titers at 24 hours post infection ([2]; mouse, in vivo)	drop of bacterial titers four hours after a single treatment ([2]; mouse, in vivo)	serum Cmax [3]	release of [3H]choline (marker of cell wall lysis) ([4]; compared with ceftriaxone treatment)	penetration across inflamed meninges ([4]; rabbit, in vivo)	serum level at 30 minutes [1, 5]	serum level at 3 hours [1, 5]	drop of bacterial titers four hours after a single treatment ([2]; CSF, mice, accompanied by 1 mg/kg of dexamethasone, daptomycin 25 mg/kg or vancomycin 50 mg/kg i.p.)	CSF titers at 24 hours post infection ([2]; mice, vancomycin 50 mg/kg at 16 and 20 hours or daptomycin 25 mg/kg at 16 hours, i.p., with dexamethasone 1 mg/kg every 6 hours)
CCCCCCCCCC(=O)N[C@@H](Cc1c[nH]c2ccccc12)C(=O)N[C@H](CC(N)=O)C(=O)N[C@@H](CC(=O)O)C(=O)N[C@@H]1C(=O)NCC(=O)N[C@@H](CCCN)C(=O)N[C@@H](CC(=O)O)C(=O)N[C@H](C)C(=O)N[C@@H](CC(=O)O)C(=O)NCC(=O)N[C@H](CO)C(=O)N[C@@H]([C@H](C)CC(=O)O)C(=O)N[C@@H](CC(=O)c2ccccc2N)C(=O)O[C@@H]1C [daptomycin]	not affected	16 µg/mL	127 µg/mL	3.9 log10 cfu/ml	1.33 log10	90 to 100 µg/mL	negligible	6%	–	–	–	–
CN[C@H](CC(C)C)C(=O)N[C@H]1C(=O)N[C@@H](CC(N)=O)C(=O)N[C@H]2C(=O)N[C@H]3C(=O)N[C@H](C(=O)N[C@H](C(=O)O)c4cc(O)cc(O)c4-c4cc3ccc4O)[C@H](O)c3ccc(c(Cl)c3)Oc3cc2cc(c3O[C@@H]2O[C@H](CO)[C@@H](O)[C@H](O)[C@H]2O[C@H]2C[C@](C)(N)[C@H](O)[C@H](C)O2)Oc2ccc(cc2Cl)[C@H]1O [vancomycin]	not affected	–	–	–	–	–	–	–	55 µg/mL	< 0.5 µg/mL	0.43 log10	3.4 log10 cfu/ml
